# Assay results reported in patent US9840501B2, “Morpholin-pyridine derivatives” (Hoffmann-La Roche Inc., priority 2014, dated 2017).
# How the values were obtained:
# mouse TAAR1 = mouse TAAR1 (Mus musculus (Mouse), UniProt Q923Y8); assay: Radioligand binding assay on mouse TAAR1; settings: for Ki: mouse TAAR1, membranes of stably transfected HEK-293 cells, first value of the pair, read-out: Ki (μM) mouse/rat: mouse
# Outline: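 Membranes from HEK293 cells stably expressing mouse TAAR1, in 20 mM HEPES-NaOH pH 7.4 with 0.1 mM EDTA, incubated 1 h at 4 °C with ^3[H]-(S)-4-[(ethyl-phenyl-amino)-methyl]-4,5-dihydro-oxazol-2-ylamine and compounds (10 pM to 10 μM, duplicates). Nonspecific binding with 10 μM unlabeled ligand; bound radioactivity counted after filtration.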
# rat TAAR1 = rat TAAR1 (Rattus norvegicus (Rat), UniProt Q923Y9); assay: Radioligand binding assay on rat TAAR1; settings: for Ki: rat TAAR1, membranes of stably transfected HEK-293 cells, second value of the pair, read-out: Ki (μM) mouse/rat: rat
# Outline: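 Membranes from HEK293 cells stably expressing rat TAAR1, in 20 mM HEPES-NaOH pH 7.4; displacement of 3[H]-(S)-4-[(ethyl-phenyl-amino)-methyl]-4,5-dihydro-oxazol-2-ylamine, nonspecific binding with 10 μM unlabeled ligand. Compounds 10 pM to 10 μM in duplicate, 1 h at 4 °C, filtration and scintillation counting.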
# Chain of mouse TAAR1 (Q923Y8 whole entry): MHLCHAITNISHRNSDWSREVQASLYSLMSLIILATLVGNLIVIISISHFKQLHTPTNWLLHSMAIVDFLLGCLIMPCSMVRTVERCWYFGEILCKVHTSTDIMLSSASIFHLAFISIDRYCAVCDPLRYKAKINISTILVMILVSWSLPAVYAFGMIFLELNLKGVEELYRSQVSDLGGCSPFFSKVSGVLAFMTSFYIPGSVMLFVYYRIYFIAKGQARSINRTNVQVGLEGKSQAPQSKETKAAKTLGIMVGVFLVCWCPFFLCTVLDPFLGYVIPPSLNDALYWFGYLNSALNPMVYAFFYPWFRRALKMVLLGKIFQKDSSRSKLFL
# Chain of rat TAAR1 (Q923Y9 whole entry): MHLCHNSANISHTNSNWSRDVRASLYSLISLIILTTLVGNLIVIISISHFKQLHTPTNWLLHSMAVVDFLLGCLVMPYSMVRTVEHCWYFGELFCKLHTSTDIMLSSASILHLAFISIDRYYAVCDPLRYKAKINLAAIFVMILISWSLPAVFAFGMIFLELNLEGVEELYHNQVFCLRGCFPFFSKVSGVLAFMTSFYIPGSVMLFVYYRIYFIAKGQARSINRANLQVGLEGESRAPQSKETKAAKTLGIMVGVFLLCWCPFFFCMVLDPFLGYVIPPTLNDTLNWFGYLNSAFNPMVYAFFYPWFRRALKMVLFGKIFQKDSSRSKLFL
SMILES,Ki (mouse TAAR1) [µM],Ki (rat TAAR1) [µM],"Kd (mouse TAAR1; mouse TAAR1 membranes, saturation curve, usual value per membrane batch, read-out: dissociation constant (Kd) of the radioligand) [µM]","Kd (rat TAAR1; rat TAAR1 membranes, saturation curve, usual value per membrane batch, read-out: dissociation constant (Kd) of the radioligand) [µM]"
"O=C(Nc1ccc([C@@H]2CNCCO2)nc1)c1[nH]nc(C(F)(F)F)c1Cl [Example 43, 4-Chloro-N-[6-[(2S)-morpholin-2-yl]-3-pyridyl]-3-(trifluoromethyl)-1H-pyrazole-5-carboxamide]",0.0474,0.0838,–,–
"CCCCc1n[nH]c(C(=O)Nc2ccc([C@@H]3CNCCO3)nc2)c1F [Example 90, 3-Butyl-4-fluoro-N-[6-[(2S)-morpholin-2-yl]-3-pyridyl]-1H-pyrazole-5-carboxamide]",0.0038,0.0269,–,–
"CCCc1c(Cl)c(C(=O)Nc2ccc([C@@H]3CNCCO3)nc2)nn1C [Example 46, 4-Chloro-1-methyl-N-[6-[(2S)-morpholin-2-yl]-3-pyridyl]-5-propyl-pyrazole-3-carboxamide]",0.0188,0.651,–,–
"CC(C)c1n[nH]c(C(=O)Nc2ccc([C@H]3CNCCO3)nc2)c1Cl [Example 115, 4-Chloro-3-isopropyl-N-[6-[(2R)-morpholin-2-yl]-3-pyridyl]-1H-pyrazole-5-carboxamide]",0.0087,0.009,–,–
"CCOc1ccc(Nc2ccc(C3CNCCO3)nc2)cc1 (racemic) [Example 3, (RS)—N-(4-Ethoxyphenyl)-6-morpholin-2-yl-pyridin-3-amine]",0.0048,0.374,–,–
"FC(F)(F)c1ccnc(Nc2ccc([C@@H]3CNCCO3)nc2)c1 [Example 23, 6-[(2S)-Morpholin-2-yl]-N-[4-(trifluoromethyl)-2-pyridyl]pyridin-3-amine]",0.0124,0.154,–,–
"Brc1ccc(Nc2ccc([C@H]3CNCCO3)nc2)nc1 [Example 47, N-(5-Bromo-2-pyridyl)-6-[(2R)-morpholin-2-yl]pyridin-3-amine]",0.0039,0.165,–,–
"CCN(C[C@H]1COC(N)=N1)c1ccccc1 [^3[H]—(S)-4-[(ethyl-phenyl-amino)-methyl]-4,5-dihydro-oxazol-2-ylamine, reference compound]",–,–,~0.0007,~0.0023
"CC(C)n1nc(OCC(F)(F)F)cc1C(=O)Nc1ccc([C@H]2CNCCO2)nc1 [Example 99, 2-Isopropyl-N-[6-[(2R)-morpholin-2-yl]-3-pyridyl]-5-(2,2,2-trifluoroethoxy)pyrazole-3-carboxamide]",0.0242,0.0041,–,–
"O=C(Nc1ccc([C@@H]2CNCCO2)nc1)Nc1cccc(C(F)(F)F)c1 [Example 42, 1-[6-[(2S)-Morpholin-2-yl]-3-pyridyl]-3-[3-(trifluoromethyl)phenyl]urea]",0.0038,0.003,–,–
"CCc1n[nH]c(C(=O)Nc2ccc([C@H]3CNCCO3)nc2)c1Br [Example 84, 4-Bromo-3-ethyl-N-[6-[(2R)-morpholin-2-yl]-3-pyridyl]-1H-pyrazole-5-carboxamide]",0.0063,0.0685,–,–
"CCc1n[nH]c(C(=O)Nc2ccc([C@H]3CNCCO3)nc2)c1C [Example 66, (R)-3-Ethyl-4-methyl-N-(6-(morpholin-2-yl)pyridin-3-yl)-1H-pyrazole-5-carboxamide]",0.0113,0.0534,–,–
"O=C(Nc1ccc([C@H]2CNCCO2)nc1)c1[nH]nc(C2CC2)c1F [Example 86, 3-Cyclopropyl-4-fluoro-N-[6-[(2R)-morpholin-2-yl]-3-pyridyl]-1H-pyrazole-5-carboxamide]",0.0074,0.156,–,–
"CC(C)c1n[nH]c(C(=O)Nc2ccc([C@@H]3CNCCO3)nc2)c1F [Example 121, 4-Fluoro-3-isopropyl-N-[6-[(2S)-morpholin-2-yl]-3-pyridyl]-1H-pyrazole-5-carboxamide]",0.0239,0.0954,–,–
"CC(C)Cc1n[nH]c(C(=O)Nc2ccc([C@@H]3CNCCO3)nc2)c1F [Example 89, 4-Fluoro-3-isobutyl-N-[6-[(2S)-morpholin-2-yl]-3-pyridyl]-1H-pyrazole-5-carboxamide]",0.0133,0.0297,–,–
"Cc1n[nH]c(C(=O)Nc2ccc([C@H]3CNCCO3)nc2)c1Cl [Example 64, 4-Chloro-3-methyl-N-[6-[(2R)-morpholin-2-yl]-3-pyridyl]-1H-pyrazole-5-carboxamide]",0.018,1.57,–,–
"Clc1ccc(Nc2ccc(C3CNCCO3)nc2)cc1 (racemic) [Example 1, (RS)—N-(4-Chlorophenyl)-6-morpholin-2-yl-pyridin-3-amine]",0.0017,0.071,–,–
"FC(F)(F)c1ccc(Nc2cnc(C3CNCCO3)nc2)cc1 (racemic) [Example 71, (RS)-2-Morpholin-2-yl-N-[4-(trifluoromethyl)phenyl]pyrimidin-5-amine]",0.0072,0.195,–,–
"O=C(Nc1ccc([C@H]2CNCCO2)nc1)c1[nH]nc(C2CC2)c1Br [Example 87, 4-Bromo-3-cyclopropyl-N-[6-[(2R)-morpholin-2-yl]-3-pyridyl]-1H-pyrazole-5-carboxamide]",0.0053,0.0291,–,–
"CC(C)c1cc(C(=O)Nc2ccc([C@@H]3CNCCO3)nc2)n(CC(F)(F)F)n1 [Example 92, 5-Isopropyl-N-[6-[(2S)-morpholin-2-yl]-3-pyridyl]-2-(2,2,2-trifluoroethyl)pyrazole-3-carboxamide]",0.262,0.0597,–,–
"CCCCc1n[nH]c(C(=O)Nc2ccc([C@H]3CNCCO3)nc2)c1F [Example 96, 3-Butyl-4-fluoro-N-[6-[(2R)-morpholin-2-yl]-3-pyridyl]-1H-pyrazole-5-carboxamide]",0.0035,0.0554,–,–
"O=C(Nc1cnc(C2CNCCO2)c(F)c1)c1ccnc(C(F)(F)F)c1 (racemic) [Example 113, (RS)—N-(5-Fluoro-6-morpholin-2-yl-3-pyridyl)-2-(trifluoromethyl)pyridine-4-carboxamide]",0.0557,1.31,–,–

# The remaining compounds from weak to strong by Ki (mouse TAAR1), led by results:
Ki (mouse TAAR1) [µM],Ki (rat TAAR1) [µM],"Kd (mouse TAAR1; mouse TAAR1 membranes, saturation curve, usual value per membrane batch, read-out: dissociation constant (Kd) of the radioligand) [µM]","Kd (rat TAAR1; rat TAAR1 membranes, saturation curve, usual value per membrane batch, read-out: dissociation constant (Kd) of the radioligand) [µM]",SMILES
0.143,0.371,–,–,"O=C(Nc1cnc(C2CNCCO2)c(Cl)c1)c1ccnc(C(F)(F)F)c1 (racemic) [Example 107, (RS)—N-(5-Chloro-6-morpholin-2-yl-3-pyridyl)-2-(trifluoromethyl)pyridine-4-carboxamide]"
0.0468,0.597,–,–,"CCCc1n[nH]c(C(=O)Nc2cnc(C3CNCCO3)c(C)c2)c1Cl (racemic) [Example 118, (RS)-4-Chloro-N-(5-methyl-6-morpholin-2-yl-3-pyridyl)-3-propyl-1H-pyrazole-5-carboxamide]"
0.0239,0.443,–,–,"Cc1n[nH]c(C(=O)Nc2ccc([C@@H]3CNCCO3)nc2)c1Cl [Example 44, 4-Chloro-3-methyl-N-[6-[(2S)-morpholin-2-yl]-3-pyridyl]-1H-pyrazole-5-carboxamide]"
0.015,0.12,–,–,"CC(C)c1n[nH]c(C(=O)Nc2ccc([C@H]3CNCCO3)nc2)c1F [Example 116, 4-Fluoro-3-isopropyl-N-[6-[(2R)-morpholin-2-yl]-3-pyridyl]-1H-pyrazole-5-carboxamide]"
0.0147,0.27,–,–,"CCc1n[nH]c(C(=O)Nc2ccc([C@@H]3CNCCO3)nc2)c1C [Example 67, (S)-3-Ethyl-4-methyl-N-(6-(morpholin-2-yl)pyridin-3-yl)-1H-pyrazole-5-carboxamide]"
0.0124,0.182,–,–,"Clc1ccc(Nc2ccc([C@H]3CNCCO3)nc2)cc1 [Example 24, N-(4-Chlorophenyl)-6-[(2R)-morpholin-2-yl]pyridin-3-amine]"
0.0124,0.328,–,–,"CCOc1ccc(C(=O)Nc2ccc(C3CNCCO3)nc2)cc1 (racemic) [Example 13, (RS)-4-Ethoxy-N-(6-morpholin-2-yl-3-pyridyl)benzamide]"
0.0121,0.302,–,–,"CCc1n[nH]c(C(=O)Nc2ccc([C@@H]3CNCCO3)nc2)c1F [Example 77, 3-Ethyl-4-fluoro-N-[6-[(2S)-morpholin-2-yl]-3-pyridyl]-1H-pyrazole-5-carboxamide]"
0.0118,0.424,–,–,"Clc1ccc(Nc2ccc([C@H]3CNCCO3)nc2)nc1 [Example 26, N-(5-Chloro-2-pyridyl)-6-[(2R)-morpholin-2-yl]pyridin-3-amine]"
0.0102,0.0286,–,–,"O=C(Nc1cccc(Cl)c1)Nc1cnc(C2CNCCO2)c(F)c1 (racemic) [Example 112, (RS)-1-(3-Chlorophenyl)-3-(5-fluoro-6-morpholin-2-yl-3-pyridyl)urea]"
0.0071,0.0106,–,–,"O=C(Nc1ccc(F)cc1)Nc1ccc(C2CNCCO2)nc1 (racemic) [Example 9, (RS)-1-(4-Fluorophenyl)-3-(6-morpholin-2-yl-3-pyridyl)urea]"
0.007,0.0146,–,–,"CCCc1n[nH]c(C(=O)Nc2ccc([C@@H]3CNCCO3)nc2)c1Cl [Example 39, 4-Chloro-N-[6-[(2S)-morpholin-2-yl]-3-pyridyl]-3-propyl-1H-pyrazole-5-carboxamide]"
0.0042,0.0029,–,–,"O=C(Nc1ccc(C(F)(F)F)cc1)Nc1ccc(C2CNCCO2)nc1 (racemic) [Example 10, (RS)-1-(6-Morpholin-2-yl-3-pyridyl)-3-[4-(trifluoromethyl)phenyl]urea]"
0.0034,0.0208,–,–,"FC(F)(F)c1cccc(Nc2ccc([C@@H]3CNCCO3)nc2)n1 [Example 30, N-[6-[(2S)-Morpholin-2-yl]-3-pyridyl]-6-(trifluoromethyl)pyridin-2-amine]"
0.003,0.102,–,–,"O=C(Nc1ccc([C@@H]2CNCCO2)nc1)c1ccc(Cl)cc1 [Example 31, 4-Chloro-N-[6-[(2S)-morpholin-2-yl]-3-pyridyl]benzamide]"
